This assay relates to STING pathway. The assay is described as follows: STING reporter assay: luciferase reporter activity in THP1-Dual KO-IFNAR2 cells activated with 2'3'cGAMP. The format is cell-based. Details: hSTING EC50: scale not given here. Particulars: 2'3'cGAMP 15 μM, 24 h; for EC50: Homo sapiens, read-out: hSTING EC50. As to the method: STING pathway activation by the compounds described herein was measured using THP1-Dual™ cells (KO-IFNAR2).
THP1-Dual™ KO-IFNAR2 Cells (obtained from invivogen) were maintained in RPMI, 10% FCS, 5 ml P/S, 2 mM L-glut, 10 mM Hepes, and 1 mM sodium pyruvate. Compounds were spotted in empty 384 well tissue culture plates (Greiner 781182) by Echo for a final concentration of 0.0017-100 μM. Cells were plated into the TC plates at 40 μL per well, 2×10E6 cells/mL. For activation with STING ligand, 2′3′cGAMP (MW 718.38, obtained from Invivogen), was prepared in Optimem media.
The following solutions were prepared for each 1×384 plate: • Solution A: 2 mL Optimem with one of the following stimuli: • 60 μL of 10 mM 2′3′cGAMP→150 μM stock • Solution B: 2 mL Optimem with 60 μL Lipofectamine 2000→Incubate 5 min at RT
2 mL of solution A and 2 ml Solution B was mixed and incubated for 20 min at room temperature (RT). 20 μL of transfection solution (A+B) was added on top of the plated cells, with a final 2′3′cGAMP concentration of 15 μM. The plates were then centrifuged immediately at 340 g for 1 minute, after which they were incubated at 37° C., 5% CO2,>98% humidity for 24 h. Luciferase reporter activity was then measured. EC50 values were calculated by using standard methods known in the art.
Luciferase reporter assay: 10 μL of supernatant from the assay was transferred to white 384-plate with flat bottom and squared wells. One pouch of QUANTI-Luc™ Plus was dissolved in 25 mL of water. 100 μL of QLC Stabilizer per 25 mL of QUANTI-Luc™ Plus solution was added. 50 μL of QUANTI-Luc™ Plus/QLC solution per well was then added. Luminescence was measured on a Platereader (e.g., Spectramax I3X (Molecular Devices GF3637001)).
Luciferase reporter activity was then measured. EC50 values were calculated by using standard methods known in the art.
For orientation: A reporter such as luciferase makes a cellular process visible.

Usually EC50 stands for the concentration needed to bring the measured effect to its halfway point.

In the case of `O=C(Nc1c[nH]c2cc(F)c(F)cc12)c1ccc(OC2CCCC2)cc1` [Compound 168, 4-(cyclopentyloxy)-N-(5,6-difluoro-1H-indol-3-yl)benzamide], the EC50 lay in the range of 200 to 1000 nM. In the case of `COCCOc1cccc(C(=O)Nc2c[nH]c3cc(F)c(F)cc23)c1` [Compound 194, N-(5,6-difluoro-1H-indol-3-yl)-3-(2-methoxyethoxy)benzamide], the EC50 was 200 to 1000 nM. For `O=C(Nc1c[nH]c2cc(F)c(F)cc12)c1cc(Cc2ccc(C(F)(F)F)cc2)c(=O)[nH]n1` [Compound 105, N-(5,6-difluoro-1H-indol-3-yl)-6-oxo-5-(4-(trifluoromethyl)benzyl)-1,6-dihydropyridazine-3-carboxamide], the EC50 fell in the range of 200 to 1000 nM. Regarding `O=C(Nc1c[nH]c2cc(F)c(F)cc12)c1ccc(OCCCC(F)(F)F)c(Cl)c1` [Compound 151, 3-chloro-N-(5,6-difluoro-1H-indol-3-yl)-4-(4,4,4-trifluorobutoxy)benzamide], the EC50 was 200 to 1000 nM. On to `COCCOc1ncc(C(=O)Nc2c[nH]c3cc(F)c(F)cc23)cc1C` [Compound 226, N-(5,6-difluoro-1H-indol-3-yl)-6-(2-methoxyethoxy)-5-methylnicotinamide], for which the EC50 was 200 to 1000 nM. Consider `O=C(Nc1c[nH]c2cc(F)c(F)cc12)c1cccc(OCCCC(F)(F)F)c1` [Compound 171, N-(5,6-difluoro-1H-indol-3-yl)-3-(4,4,4-trifluorobutoxy)benzamide], for which the EC50 was 200 to 1000 nM. Regarding `O=C(Nc1c[nH]c2cc(F)c(F)cc12)c1ccc(OC(F)F)cc1` [Compound 116, N-(5,6-difluoro-1H-indol-3-yl)-4-(difluoromethoxy)benzamide], the 50% effective concentration (EC50) was 200 to 1000 nM. In the case of `CCOc1cc(F)c(C(=O)Nc2c[nH]c3cc(F)c(F)cc23)c(F)c1` [Compound 199, N-(5,6-difluoro-1H-indol-3-yl)-4-ethoxy-2,6-difluorobenzamide], the EC50 was 200 to 1000 nM. For `O=C(Nc1c[nH]c2cc(F)c(F)cc12)c1cnc(NCCC(F)(F)F)c(Cl)c1` [Compound 239, 5-chloro-N-(5,6-difluoro-1H-indol-3-yl)-6-((3,3,3-trifluoropropyl)amino)nicotinamide], the EC50 fell in the range of 200 to 1000 nM. In the case of `O=C(Nc1c[nH]c2cc(F)c(F)cc12)c1ccc(OCCOC(F)(F)F)c(F)c1` [Compound 262, N-(5,6-difluoro-1H-indol-3-yl)-3-fluoro-4-(2-(trifluoromethoxy)ethoxy)benzamide], the EC50 lay in the range of 200 to 1000 nM. As for `O=C(Nc1c[nH]c2cc(F)c(F)cc12)c1cnc(CN2CCC(F)(F)CC2)c(Cl)c1` [Compound 254, 5-chloro-N-(5,6-difluoro-1H-indol-3-yl)-6-((4,4-difluoropiperidin-1-yl)methyl)nicotinamide], the EC50 was in the range of 200 to 1000 nM. As for `O=C(Nc1c[nH]c2cc(F)c(F)cc12)c1ccc(OCC2CC2)cc1` [Compound 130, 4-(cyclopropylmethoxy)-N-(5,6-difluoro-1H-indol-3-yl)benzamide], the EC50 fell in the range of 200 to 1000 nM.

For `O=C(Nc1c[nH]c2cc(F)c(F)cc12)c1cnc(C2CC(F)(F)C2)c(Cl)c1` [Compound 240, 5-chloro-N-(5,6-difluoro-1H-indol-3-yl)-6-(3,3-difluorocyclobutyl)nicotinamide], the EC50 fell in the range of 200 to 1000 nM.

As to `CC(C)Oc1ccc(C(=O)Nc2c[nH]c3cc(F)c(F)cc23)cn1` [Compound 265, N-(5,6-difluoro-1H-indol-3-yl)-6-(propan-2-yloxy)pyridine-3-carboxamide], the EC50 lay in the range of 200 to 1000 nM.

As to `O=C(Nc1c[nH]c2cc(F)ccc12)c1ccc(OCCCC(F)(F)F)c(F)c1` [Compound 192, 3-fluoro-N-(6-fluoro-1H-indol-3-yl)-4-(4,4,4-trifluorobutoxy)benzamide], the EC50 was in the range of 200 to 1000 nM. With `CCOc1ccc(C(=O)Nc2c[nH]c3cc(F)c(F)cc23)cc1` [Compound 147, N-(5,6-difluoro-1H-indol-3-yl)-4-ethoxybenzamide], the EC50 was 200 to 1000 nM. The same measure, in the same setting: the figure for `O=C(Nc1c[nH]c2ccc(Cl)cc12)c1ccc(N2C[C@@H]3[C@@H](COCC(F)(F)F)[C@@H]3C2)c(F)c1` [Compound 225, N-(5-chloro-1H-indol-3-yl)-3-fluoro-4-((1R,5S,6r)-6-((2,2,2-trifluoroethoxy)methyl)-3-azabicyclo[3.1.0]hexan-3-yl)benzamide] is 40 to 200 nM; for `C[C@H](c1ccc(C(=O)Nc2c[nH]c3cc(F)c(F)cc23)cc1F)N1CC(F)(F)C1` (single isomer, unassigned) [Compound 245, (R or S)—N-(5,6-difluoro-1H-indol-3-yl)-4-(1-(3,3-difluoroazetidin-1-yl)-1l3-ethyl)-3-fluorobenzamide] it is 200 to 1000 nM. On the same count and under the same terms, the value for `O=C(Nc1c[nH]c2ccc(Cl)cc12)c1ccc(CC2CCN(CC(F)(F)F)CC2)cc1` [Compound 229, N-(5-chloro-1H-indol-3-yl)-4-((1-(2,2,2-trifluoroethyl)piperidin-4-yl)methyl)benzamide] was 40 to 200 nM; that for `COCc1ccc(-n2cc(-c3ccc4[nH]cc(NC(=O)c5ccc(OCCCC(F)(F)F)cc5)c4c3)cn2)cc1` [Compound 162, N-(5-(1-(4-(methoxymethyl)phenyl)-1H-pyrazol-4-yl)-1H-indol-3-yl)-4-(4,4,4-trifluorobutoxy)benzamide] was 40 to 200 nM; that for `O=C(Nc1c[nH]c2cc(F)c(F)cc12)c1ccnc(OC(F)F)c1` [Compound 106, N-(5,6-difluoro-1H-indol-3-yl)-2-(difluoromethoxy)pyridine-4-carboxamide] was 200 to 1000 nM.

In the case of `Cc1nc(C(=O)Nc2c[nH]c3cc(F)c(F)cc23)cnc1OC1CC(F)(F)C1` [Compound 208, N-(5,6-difluoro-1H-indol-3-yl)-5-(3,3-difluorocyclobutoxy)-6-methylpyrazine-2-carboxamide], the EC50 fell in the range of 200 to 1000 nM. For the molecule `COCCO[C@@H]1CCN(c2ccc(C(=O)Nc3c[nH]c4cc(F)c(F)cc34)cc2F)C1` [Compound 185, (R)-N-(5,6-difluoro-1H-indol-3-yl)-3-fluoro-4-(3-(2-methoxyethoxy)pyrrolidin-1-yl)benzamide], the EC50 fell in the range of 200 to 1000 nM.

Regarding `N#CC1(c2ccc(C(=O)Nc3c[nH]c4cc(F)c(F)cc34)cc2)CCC(F)(F)CC1` [Compound 213, 4-(1-cyano-4,4-difluorocyclohexyl)-N-(5,6-difluoro-1H-indol-3-yl)benzamide], the EC50 fell in the range of 200 to 1000 nM. Take `O=C(Nc1c[nH]c2cc(F)c(F)cc12)c1cccc(NCCCC(F)(F)F)n1` [Compound 277, N-(5,6-difluoro-1H-indol-3-yl)-6-((4,4,4-trifluorobutyl)amino)picolinamide]: the concentration giving a half-maximal response (EC50) is 5000 to 100000 nM. On the same count and under the same terms, the figure for `O=C(Nc1c[nH]c2cc(F)c(F)cc12)c1ccnc(NC2CC(F)(F)C2)c1` [Compound 247, N-(5,6-difluoro-1H-indol-3-yl)-2-((3,3-difluorocyclobutyl)amino)isonicotinamide] is 200 to 1000 nM; for `CCC(O)Cc1ccc(C(=O)Nc2c[nH]c3cc(F)c(F)cc23)cn1` (stereo not shown) [Compound 228, N-(5,6-difluoro-1H-indol-3-yl)-6-(2-hydroxybutyl)nicotinamide] it is 1000 to 5000 nM. As to `COc1ncc(C(=O)Nc2c[nH]c3cc(F)c(F)cc23)cc1C(F)(F)F` [Compound 264, N-(5,6-difluoro-1H-indol-3-yl)-6-methoxy-5-(trifluoromethyl)pyridine-3-carboxamide], the “hSTING EC50” value is “+ +”.

For the origin of these results see patent US20230250106A1, “COMPOUNDS AND COMPOSITIONS FOR TREATING CONDITIONS ASSOCIATED WITH STING ACTIVITY” (IFM Due, Inc., priority 2020, published 2023).
